The record followed here is patent US20240285555A1, “COMPOSITIONS FOR THE TREATMENT OF COPPER DEFICIENCY AND METHODS OF USE” (priority 2018, published 2024).

The subject of experiment [1] is Ctr1^−/− H9c2 cardiomyocytes. Put plainly: Intracellular copper levels in Ctr1 knockout H9c2 cardiomyocytes (ICP-MS). It is filed as cell-based, rat. The following applies: 5 nM ES. How it is done:
FIGS. 4A and 4B illustrates the effects of ES supplementation in increasing copper levels (A) and cytochrome c oxidase subunit, COX1, and superoxide dismutase, SOD1 levels (B) in Ctrl1^−/− H9c2 rat cardiomyocytes. ATP5A is a subunit of mitochondrial ATP synthase and was used as a loading control for the Western blotting experiment.
Mammalian Cell Culture. The human control MCH46 and SCO2 patient fibroblasts as well as the rat H9c2 control and Ctr1^−/− cardiomyocytes were cultured in high glucose Dulbecco's modified Eagle's medium (DMEM) supplemented with 10% fetal bovine serum (Sigma) and 1 mM sodium pyruvate (Life Technologies). […] Whole cell protein was extracted in lysis buffer (BP-115, Boston BioProducts) supplemented with protease inhibitor cocktail (Roche Diagnostics) and the protein concentrations were determined by BCA assay (Thermo Scientific). […]
Cellular and Mitochondrial Copper Measurements. Cellular and mitochondrial copper levels were measured using the Perkin Elmer DRC II Inductively Coupled Plasma-Mass Spectrometer (ICP-MS). […] Samples were diluted in ultrapure metal-free water (TraceSELECT, Sigma) and analyzed by ICP-MS. […] Copper concentrations in mammalian cells were also measured by ICP-MS. […]

Another experiment concerns SCO2 patient fibroblasts. The experiment is described as follows: Steady state COX2 levels in SCO2 patient fibroblasts. It is filed as cell-based, human. The following applies: dose and time dependent. As to the method: Mammalian Cell Culture. The human control MCH46 and SCO2 patient fibroblasts as well as the rat H9c2 control and Ctr1^−/− cardiomyocytes were cultured in high glucose Dulbecco's modified Eagle's medium (DMEM) supplemented with 10% fetal bovine serum (Sigma) and 1 mM sodium pyruvate (Life Technologies). The mouse embryonic fibroblasts were cultured in DMEM 10% FBS, 1 mM sodium pyruvate, 1× minimum essential medium non-essential amino acids (MEM NEAA; Life Technologies 11140), 50 μg/mL uridine, and 1× Pen Strep Glutamine (Life Technologies 10378). All cell lines were cultured under 5% CO2 at 37° C. and were treated with indicated concentrations of ES for 3-6 days before harvesting. Whole cell protein was extracted in lysis buffer (BP-115, Boston BioProducts) supplemented with protease inhibitor cocktail (Roche Diagnostics) and the protein concentrations were determined by BCA assay (Thermo Scientific).
Immunoblotting and In-gel Activities. Sodium dodecyl sulfate polyacrylamide gel electrophoresis (SDS-PAGE) and Blue Native PAGE (BN-PAGE) were performed to separate denatured and native protein complexes, respectively. For SDS-PAGE, mitochondrial lysate ([…]) was separated on NuPAGE 4-12% Bis-Tris gels (Life Technologies, Carlsbad, CA). For BN-PAGE, yeast mitochondria were solubilized in buffer containing 1% digitonin (Life Technologies) by incubating for 15 min at 4° C. […]

With `CN(NC(=O)CC(=O)NN(C)C(=S)c1ccccc1)C(=S)c1ccccc1` [ES, elesclomol], in experiment [1], the intracellular copper levels entry is on record as “restored”. Also, the “steady state levels of COX2” value in the experiment with SCO2 patient fibroblasts is recorded as “partially rescue”.
